From patent publication US20210078988A1, “MODULATORS OF INDOLEAMINE 2,3-DIOXYGENASE” (GLAXOSMITHKLINE INTELLECTUAL PROPERTY DEVELOPMENT LIMITED, priority 2017, published 2021)

The molecules below were run against T1, indoleamine 2, 3-dioxygenase (IDO1) (Homo sapiens, UniProt P14902) (assay: PBMC IDO1 assay (kynurenine detection via mass spectrometry)). Conditions: human PBMC stimulated with IFN-γ and LPS, 2 days, kynurenine by mass spectrometry; read-out: IDO1 PBMC pIC50 (converted).
T1 construct: human peripheral blood mononuclear cells (PBMC) (PB003F; host or cells: human PBMC stimulated with IFN-gamma and LPS
Assay type: cell-based
Summary of the method: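 Kynurenine output, read by RapidFire mass spectrometry as a ratio to internal standard, reflected IDO1 activity in human PBMCs induced with 100 ng/ml IFN-γ plus 50 ng/ml LPS and dosed with compound (11 points, 3-fold) over 2 days. Cytotoxicity was tracked by CellTiter-Glo; XC50 values came from Hill-slope fits.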

T1 sequence (P14902 whole entry): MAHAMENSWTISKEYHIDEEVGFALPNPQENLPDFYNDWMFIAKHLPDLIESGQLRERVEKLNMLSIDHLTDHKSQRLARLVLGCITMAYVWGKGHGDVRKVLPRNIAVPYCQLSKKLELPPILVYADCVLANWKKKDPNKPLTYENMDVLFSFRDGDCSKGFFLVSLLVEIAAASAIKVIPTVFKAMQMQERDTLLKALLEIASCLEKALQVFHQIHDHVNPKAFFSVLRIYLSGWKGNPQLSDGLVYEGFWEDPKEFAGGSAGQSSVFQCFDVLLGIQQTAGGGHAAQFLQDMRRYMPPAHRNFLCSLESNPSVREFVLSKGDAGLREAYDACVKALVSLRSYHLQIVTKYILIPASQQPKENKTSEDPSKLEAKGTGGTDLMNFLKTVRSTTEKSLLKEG

`CC(C)(C)OC(=O)N1CCC(C[C@@H](CCNCc2ccccc2)NC(=O)c2ccc(Cl)s2)CC1` [Example 83, (S)-tert-butyl 4-(4-(benzylamino)-2-(5-chlorothiophene-2-carboxamido)butyl)piperidine-1-carboxylate] and `CCCc1ccc(C(=O)NC(CC2CCN(C(=O)OC(C)(C)C)CC2)c2ccccc2)s1` (centres unmarked) [Example 87, tert-butyl 4-(2-phenyl-2-(5-propylthiophene-2-carboxamido)ethyl)piperidine-1-carboxylate] are within 1.5-fold of each other in IC50: 0.0158 µM for the first, 0.02 µM for the second.

`CC(C)(C)OC(=O)N1CCC(CC(NC(=O)c2ccc(Cl)c(F)c2)c2ccccc2)CC1` (centres unmarked) [Example 84, tert-butyl 4-(2-(4-chloro-3-fluorobenzamido)-2-phenylethyl)piperidine-1-carboxylate] and `CC(C)(C)OC(=O)N1CCC(CC(NC(=O)c2ccc(I)c(F)c2)c2ccccc2)CC1` (centres unmarked) [Example 101, tert-butyl 4-(2-(3-fluoro-4-iodobenzamido)-2-phenylethyl)piperidine-1-carboxylate] are within 1.5-fold of each other in IC50: 0.02 µM for the first, 0.0251 µM for the second.

Going from `CCOC(=O)N1CCC(CC(NC(=O)c2ccc(F)cc2)c2ccc(OC)nc2)CC1` (centres unmarked) [Example 85, ethyl 4-(2-(4-fluorobenzamido)-2-(6-methoxypyridin-3-yl)ethyl)piperidine-1-carboxylate] to `CCOC(=O)N1CCC(CC(NC(=O)c2ccc(F)cc2)c2ccccc2)CC1` (centres unmarked) [Example 120, ethyl 4-(2-(4-fluorobenzamido)-2-phenylethyl)piperidine-1-carboxylate], the IC50 rises from 0.02 µM to 0.0398 µM (2-fold).

First: C#CCOc1ccc(C(=O)NC(CC2CCN(C(=O)OC(C)(C)C)CC2)c2ccccc2)cc1 (centres unmarked) [Example 86, tert-butyl 4-(2-phenyl-2-(4-(prop-2-yn-1-yloxy)benzamido)ethyl)piperidine-1-carboxylate]
Second: C#CCOc1ccc(C(=O)NC(CC2CCN(C(=O)OC(C)(C)C)CC2)c2ccccc2)cc1F (centres unmarked) [Example 114, tert-butyl 4-(2-(3-fluoro-4-(prop-2-yn-1-yloxy)benzamido)-2-phenylethyl)piperidine-1-carboxylate]
The IC50 of the first is 1.6-fold lower: 0.02 µM for the first, 0.0316 µM for the second.

`CC(C)C(CC1CCN(C(=O)OC(C)(C)C)CC1)NC(=O)c1ccc(Cl)cc1` (centres unmarked) [Example 88, tert-butyl 4-(2-(4-chlorobenzamido)-3-methylbutyl)piperidine-1-carboxylate] and `CC(C)(C)OC(=O)N1CCC(C[C@H](NC(=O)c2ccc(Cl)cc2)C2CC2)CC1` [Example 90, (S)-tert-butyl 4-(2-(4-chlorobenzamido)-2-cyclopropylethyl)piperidine-1-carboxylate] are the same in IC50: 0.02 µM for the first, 0.02 µM for the second.

`CCCOC(=O)N1CCC(CC(NC(=O)c2ccc(Cl)cc2)c2ccccc2)CC1` (centres unmarked) [Example 89, propyl 4-(2-(4-chlorobenzamido)-2-phenylethyl)piperidine-1-carboxylate] and `CCOC(=O)N1CCC(CC(NC(=O)c2ccc(Cl)cc2)c2ccccc2)CC1` (centres unmarked) [Example 102, ethyl 4-(2-(4-chlorobenzamido)-2-phenylethyl)piperidine-1-carboxylate] are within 1.5-fold of each other in IC50: 0.02 µM for the first, 0.0251 µM for the second.

`CC(C)(C)OC(=O)N1CCC(CC(NC(=O)c2ccc(Br)cc2)C2CCCCC2)CC1` (centres unmarked) [Example 91, tert-butyl 4-(2-(4-bromobenzamido)-2-cyclohexylethyl)piperidine-1-carboxylate] and `CC(C)(C)OC(=O)N1CCC(CC(NC(=O)c2ccc(F)s2)C2CCCCC2)CC1` (centres unmarked) [Example 92, tert-butyl 4-(2-cyclohexyl-2-(5-fluorothiophene-2-carboxamido)ethyl)piperidine-1-carboxylate] are the same in IC50: 0.02 µM for the first, 0.02 µM for the second.

`Cc1ccc(C(=O)NC(CC2CCN(C(=O)C(F)(F)c3ccccc3)CC2)c2ccccc2)s1` (centres unmarked) [Example 93, N-(2-(1-(2,2-difluoro-2-phenylacetyl)piperidin-4-yl)-1-phenylethyl)-5-methylthiophene-2-carboxamide] and `Cc1ccc(C(=O)NC(CC2CCN(C(=O)C(F)(F)F)CC2)c2ccccc2)s1` (centres unmarked) [Example 94, 5-methyl-N-(1-phenyl-2-(1-(2,2,2-trifluoroacetyl)piperidin-4-yl)ethyl)thiophene-2-carboxamide] are the same in IC50: 0.02 µM for the first, 0.02 µM for the second.

`CCC(F)(F)C(=O)N1CCC(CC(NC(=O)c2ccc(C)s2)c2ccccc2)CC1` (centres unmarked) [Example 95, N-(2-(1-(2,2-difluorobutanoyl)piperidin-4-yl)-1-phenylethyl)-5-methylthiophene-2-carboxamide] and `CC(C)(C)OC(=O)N1CCC(CC(NC(=O)c2ccc(C3CC3)s2)c2ccccc2)CC1` (centres unmarked) [Example 98, tert-butyl 4-(2-(5-cyclopropylthiophene-2-carboxamido)-2-phenylethyl)piperidine-1-carboxylate] are within 1.5-fold of each other in IC50: 0.02 µM for the first, 0.0251 µM for the second.

First: CCCCN(CC)c1nnc(C(CC2CCN(C(=O)OC(C)(C)C)CC2)NC(=O)c2ccc(C)s2)o1 (centres unmarked) [Example 96, tert-butyl 4-(2-(5-(butyl(ethyl)amino)-1,3,4-oxadiazol-2-yl)-2-(5-methylthiophene-2-carboxamido)ethyl)piperidine-1-carboxylate]
Second: COCCN(C)c1nnc(C(CC2CCN(C(=O)OC(C)(C)C)CC2)NC(=O)c2ccc(Cl)s2)o1 (centres unmarked) [Example 113, tert-butyl 4-(2-(5-chlorothiophene-2-carboxamido)-2-(5-((2-methoxyethyl)(methyl)amino)-1,3,4-oxadiazol-2-yl)ethyl)piperidine-1-carboxylate]
The IC50 of the first is 1.6-fold lower: 0.02 µM for the first, 0.0316 µM for the second.

`CC(C)(C)OC(=O)N1CCC(CC(NC(=O)c2ccc(C3CC3)cc2)c2ccccc2)CC1` (centres unmarked) [Example 97, tert-butyl 4-(2-(4-cyclopropylbenzamido)-2-phenylethyl)piperidine-1-carboxylate] and `CC(C)(C)OC(=O)N1CCC(CC(NC(=O)c2ccc(F)cc2)c2ccccc2)CC1` (centres unmarked) [Example 107, tert-butyl 4-(2-(4-fluorobenzamido)-2-phenylethyl)piperidine-1-carboxylate] are within 1.5-fold of each other in IC50: 0.0251 µM for the first, 0.0316 µM for the second.

`CC(C)C(CC1CCN(C(=O)OC(C)(C)C)CC1)NC(=O)c1ccc(Cl)s1` (centres unmarked) [Example 99, tert-butyl 4-(2-(5-chlorothiophene-2-carboxamido)-3-methylbutyl)piperidine-1-carboxylate] and `CC(C)(C)OC(=O)N1CCC(CC(NC(=O)c2ccc(Cl)s2)C2CCCC2)CC1` (centres unmarked) [Example 115, tert-butyl 4-(2-(5-chlorothiophene-2-carboxamido)-2-cyclopentylethyl)piperidine-1-carboxylate] are within 1.5-fold of each other in IC50: 0.0251 µM for the first, 0.0316 µM for the second.

`O=C(NC(CC1CCN(C(=O)OC2CCCC2)CC1)c1ccccc1)c1ccc(Cl)cc1` (centres unmarked) [Example 100, cyclopentyl 4-(2-(4-chlorobenzamido)-2-phenylethyl)piperidine-1-carboxylate] and `O=C(NC(CC1CCN(C(=O)OCC2CC2)CC1)c1ccccc1)c1ccc(Cl)cc1` (centres unmarked) [Example 105, cyclopropylmethyl 4-(2-(4-chlorobenzamido)-2-phenylethyl)piperidine-1-carboxylate] are the same in IC50: 0.0251 µM for the first, 0.0251 µM for the second.

`CC(C)OC(=O)N1CCC(CC(NC(=O)c2ccc(Cl)cc2)c2ccccc2)CC1` (centres unmarked) [Example 103, isopropyl 4-(2-(4-chlorobenzamido)-2-phenylethyl)piperidine-1-carboxylate] and `O=C(NC(CC1CCN(C(=O)Oc2ccccc2)CC1)c1ccccc1)c1ccc(Cl)cc1` (centres unmarked) [Example 104, phenyl 4-(2-(4-chlorobenzamido)-2-phenylethyl)piperidine-1-carboxylate] are the same in IC50: 0.0251 µM for the first, 0.0251 µM for the second.

`CCc1ccc(C(=O)NC(CC2CCN(C(=O)OC(C)(C)C)CC2)C2CCCCC2)s1` (centres unmarked) [Example 106, tert-butyl 4-(2-cyclohexyl-2-(5-ethylthiophene-2-carboxamido)ethyl)piperidine-1-carboxylate] and `CC(C)(C)OC(=O)N1CCC(CC(NC(=O)c2ccc(F)s2)C2CCCC2)CC1` (centres unmarked) [Example 116, tert-butyl 4-(2-cyclopentyl-2-(5-fluorothiophene-2-carboxamido)ethyl)piperidine-1-carboxylate] are within 1.5-fold of each other in IC50: 0.0251 µM for the first, 0.0316 µM for the second.

`CCOC(=O)N1CCC(CC(NC(=O)c2ccc(F)cc2)C2CC2)CC1` (centres unmarked) [Example 108, ethyl 4-(2-cyclopropyl-2-(4-fluorobenzamido)ethyl)piperidine-1-carboxylate] and `CCN(CC)c1nnc(C(CC2CCN(C(=O)OC(C)(C)C)CC2)NC(=O)c2ccc(F)cc2)o1` (centres unmarked) [Example 112, tert-butyl 4-(2-(5-(diethylamino)-1,3,4-oxadiazol-2-yl)-2-(4-fluorobenzamido)ethyl)piperidine-1-carboxylate] are the same in IC50: 0.0316 µM for the first, 0.0316 µM for the second.

`COc1ccc(C(=O)NC(CC2CCN(C(=O)OC(C)(C)C)CC2)c2ccccc2)cc1F` (centres unmarked) [Example 109, tert-butyl 4-(2-(3-fluoro-4-methoxybenzamido)-2-phenylethyl)piperidine-1-carboxylate] and `CCc1ccc(C(=O)NC(CC2CCN(C(=O)OC(C)(C)C)CC2)c2ccccc2)cc1` (centres unmarked) [Example 118, tert-butyl 4-(2-(4-ethylbenzamido)-2-phenylethyl)piperidine-1-carboxylate] are the same in IC50: 0.0316 µM for the first, 0.0316 µM for the second.

`CC(C)(C)OC(=O)N1CCC(CC(NC(=O)c2ccc(C(F)(F)F)cc2)c2ccccc2)CC1` (centres unmarked) [Example 110, tert-butyl 4-(2-phenyl-2-(4-(trifluoromethyl)benzamido)ethyl)piperidine-1-carboxylate] and `C=Cc1ccc(C(=O)NC(CC2CCN(C(=O)OC(C)(C)C)CC2)c2ccccc2)cc1` (centres unmarked) [Example 119, tert-butyl 4-(2-phenyl-2-(4-vinylbenzamido)ethyl)piperidine-1-carboxylate] are the same in IC50: 0.0316 µM for the first, 0.0316 µM for the second.

`COc1ccc(C(CC2CCN(C(=O)OC(C)(C)C)CC2)NC(=O)c2ccc(SC)cc2)cn1` (centres unmarked) [Example 111, tert-butyl 4-(2-(6-methoxypyridin-3-yl)-2-(4-(methylthio)benzamido)ethyl)piperidine-1-carboxylate] and `O=C(NC(CC1CCN(C(=O)OCc2ccccc2)CC1)c1ccccc1)c1ccc(Cl)cc1` (centres unmarked) [Example 117, benzyl 4-(2-(4-chlorobenzamido)-2-phenylethyl)piperidine-1-carboxylate] are the same in IC50: 0.0316 µM for the first, 0.0316 µM for the second.
